Measurements reported in US20180333382A1, “PHARMACEUTICAL COMPOSITIONS COMPRISING DGLA AND USE OF SAME” (DS Biopharma Limited, priority 2017, published 2018).
Several values for one entry are separate records, joined by “and”; a condition that tells them apart may be missing. Equal values may be shown once. Entries after “also recorded” stand apart in the source; their conditions may differ. Marks after values point to notes of the source that are not given here.

Experiments:
[1] = test system: spontaneous hypertensive rats; experiment: Arterial pressure and phenylephrine-induced hypertensive response after seven days of gavage (DGLA, aspirin, DGLA + aspirin); type: in vivo, rat; details: for Mean arterial pressure at baseline, Average SAP / Mean arterial pressure with an intravenous dose of Phenylephrine 20 μg/kg, Average SAP / Mean arterial pressure at baseline, individual rats / Mean arterial pressure with an intravenous dose of Phenylephrine 20 μg/kg, individual rats: seven consecutive days of gavage; for Mean arterial pressure at baseline, individual rats / Mean arterial pressure with an intravenous dose of Phenylephrine 20 μg/kg, individual rats: Rat #1-#5; for Arterial pressure, Diastol / Arterial pressure, Systol / Mean systemic arterial pressure: seven days of gavage, before phenylephrine
Method: An in vivo investigation of anti-hypertension efficacy following co-administration of DGLA and aspirin in spontaneous hypertensive rats was conducted. This experiment investigated the efficacy of DGLA when co-administered chronically with aspirin to reduce the hypertensive response induced acutely by phenylephrine in spontaneous hypertensive rats. Spontaneously hypertensive adult male rats (250-300 g), bred by Charles River Laboratories, were used for this assay. The animals were identified upon arrival as per CCPA guidelines. The animals were pair-housed by group (low dose+aspirin, high dose+aspirin or aspirin alone) for the duration of the oral gavage prior to surgery. All animal care and vivarium maintenance was recorded, with documents kept at the test facility.
The concentrations of DGLA to be tested (50 and 500 mg/kg) as well as the concentration of aspirin (10 mg/kg) were selected by the Sponsor based on information available at the time of design of this study. They were selected to cover a range of concentrations useful for the identification of the mechanism of action of the test article.
All solution preparations were documented on a Solution Contents Form, defining labelling information and all relevant information on reagents: batch number, storage conditions, contents, and preparation/expiry dates.
The test article was formulated using olive oil as the vehicle. This stock solution was then administered by oral gavage once per day for seven consecutive days. A low and a high dose (50 mg/kg and 500 mg/kg) were tested.
A 5 mg/ml stock solution of aspirin was prepared by dissolving the appropriate amount of aspirin in 100% DMSO which was then diluted in water. The concentration of DMSO was less than 1%. The appropriate volume was administered by oral gavage to each animal once per day for seven consecutive days. The stock solution was stored at room temperature and was considered stable for the duration of the gavage.
The appropriate volume was administered to each animal by an intravenous injection at the end of the experiment on the surgery day. The stock solution was stored at 4° C. and was considered stable for the duration of the experiment.
A stock solution of phenylephrine of 1 mg/ml were prepared in PBS (pH=7.4±0.05). The stock solution was stored at 4° C. The expiration date was set at 14 days after preparation.
Male spontaneous hypertensive rats weighing approximately 300 g arrived at the facility at least two days before beginning the oral gavage. Animals were assigned to one of three groups (low dose+aspirin, high dose+aspirin, and aspirin), and were pair-housed during the acclimation period. Each group (n=4) received the appropriate compound by oral gavage using a 16 G feeding needle. The stock solution was administered once per day for seven consecutive days. On the seventh day of administration, the animals underwent surgery and hypertensive monitoring.
Rats were anesthetized with a 2.5-3.0% isoflurane-O2 mixture in an induction box. When the animals were removed from the induction box, they were connected onto a nose cone to maintain anesthesia during the tracheotomy. The animals were tracheotomised with an endotracheal tube (7 cm length from connector to the tip made with a PE205 tube from BD and a 16 G needle) to facilitate spontaneous breathing, stabilize hemodynamics, and to keep the rat under anesthesia with an isoflurane-O2 mixture. Two catheters were inserted: one in the right femoral artery for systemic arterial pressure (SAP) measurement, and one in the right femoral vein for delivery of the hypertensor and positive control. ECG signals were acquired with ECG contacts placed in a Lead-1 configuration on the anaesthetized animal, and a pulse oxymeter was attached to the animal's hind paw to enable continuous monitoring of the general condition of the rat during the surgical procedure.

[2] = test system: patients with moderate to severe atopic dermatitis having normal eosinophil levels; experiment: Post hoc stratification of the phase II study by eosinophil level (normal <0.3×10^9/L); type: in vivo, human; details: for Percentage Change of BSA Levels From Baseline, Mean / Percentage Change of DLQI Scores From Baseline, Mean / Percentage Change of EASI Scores From Baseline, Mean / Percentage Change of IGA Scores From Baseline, Mean / Percentage Change of POEM Scores From Baseline, Mean / Percentage Change of SCORAD Levels From Baseline, Mean / Percentage Change of VAS Scores From Baseline, Mean: Normal Eosinophil Population
Method: Further to the randomized, double-blind, placebo-controlled, phase II study of Example 2 above, a post hoc stratification analysis was performed using the results of that study to assess the efficacy of orally administered DS107G (DGLA) to patients with moderate to severe atopic dermatitis having normal eosinophil levels of less than about 0.3×10^9/L compared to the same population receiving placebo and/or to the total study population. The primary objective of the post hoc stratification study was to compare the efficacy of orally administered DS107G capsules, versus placebo, in the treatment of adult patients with moderate to severe atopic dermatitis having normal eosinophil levels of less than about 0.3×10^9/L. The secondary objective was to compare the efficacy of orally administered DS107G capsules in the treatment of adult patients with moderate to severe atopic dermatitis having normal eosinophil levels of less than about 0.3×10^9/L versus the total study population. Unless stated otherwise, all elements of the post hoc stratification analysis were the same as those of the phase II study described in Example 2 above.

[3] = Normal Eosinophil < 0.3 × 10^9/L, daily, 8 weeks
[4] = Normal Eosinophil < 0.3 × 10^9/L, daily, 8 weeks, LOCF
[5] = normal eosinophil levels, weeks 2, 4, 6, 8 and 10, vs placebo or total study population
[6] = patients having normal eosinophil levels
[7] = study population having normal eosinophil levels, oral, once daily, 8 weeks

## CCCCC/C=C\C/C=C\C/C=C\CCCCCCC(=O)O [DS107G, Dihomo gamma linolenic acid]
[1]; DGLA 50 mg/kg
  Mean arterial pressure at baseline, Average SAP: 74.5 mm of Hg
  Mean arterial pressure with an intravenous dose of Phenylephrine 20 μg/kg, Average SAP: 115.7 mm of Hg
  Mean arterial pressure at baseline, individual rats: 51.77 mm of Hg and 87.81 mm of Hg and 62.11 mm of Hg and 86.01 mm of Hg and 84.93 mm of Hg
  Mean arterial pressure with an intravenous dose of Phenylephrine 20 μg/kg, individual rats: 91.82 mm of Hg and 137.84 mm of Hg and 105.44 mm of Hg and 132.68 mm of Hg and 110.72 mm of Hg
  Arterial pressure, Diastol: 75 mmHg
  Arterial pressure, Systol: 120 mmHg
  Mean systemic arterial pressure: 90 mmHg
[1]; DGLA 500 mg/kg
  Mean arterial pressure at baseline, Average SAP: 82.2 mm of Hg
  Mean arterial pressure with an intravenous dose of Phenylephrine 20 μg/kg, Average SAP: 112.1 mm of Hg
  Mean arterial pressure at baseline, individual rats: 64.81 mm of Hg and 91.55 mm of Hg and 94.41 mm of Hg and 66.56 mm of Hg and 93.64 mm of Hg
  Mean arterial pressure with an intravenous dose of Phenylephrine 20 μg/kg, individual rats: 105.21 mm of Hg and 119.33 mm of Hg and 118.12 mm of Hg and 97.17 mm of Hg and 120.82 mm of Hg
  Arterial pressure, Diastol: 80 mmHg
  Arterial pressure, Systol: 135 mmHg
  Mean systemic arterial pressure: 98 mmHg
[1]; DGLA 50 or 500 mg/kg alone, effect eliminated by aspirin
  effect on arterial pressure in spontaneously hypertensive rats: successfully decreases the arterial pressure
[1]; spontaneous hypertensive rats treated with DGLA alone, observed previously
  lowering of the mean systemic arterial blood pressure: up to 25%
[2]; [3]
  EASI-50 (%): 60%
  EASI-75 (%): 40%
[2]; [4]
  BSA Change from Baseline: −41% *
  EASI Percentage Change from Baseline: −51% *
  IGA responder (%): 42% *
  Pruritus Percentage Change from Baseline: −53% *
[2]; Week 2
  Percentage Change of BSA Levels From Baseline, Mean: −10.8%
  Percentage Change of DLQI Scores From Baseline, Mean: −41.3%
  Percentage Change of EASI Scores From Baseline, Mean: −20.7%
  Percentage Change of IGA Scores From Baseline, Mean: −15.1%
  Percentage Change of POEM Scores From Baseline, Mean: −41.8%
  Percentage Change of SCORAD Levels From Baseline, Mean: −16.5%
  Percentage Change of VAS Scores From Baseline, Mean: −29.8%
[2]; Week 4
  Percentage Change of BSA Levels From Baseline, Mean: −21.2%
  Percentage Change of DLQI Scores From Baseline, Mean: −58.2%
  Percentage Change of EASI Scores From Baseline, Mean: −41.9%
  Percentage Change of IGA Scores From Baseline, Mean: −28.8%
  Percentage Change of POEM Scores From Baseline, Mean: −55.3%
  Percentage Change of SCORAD Levels From Baseline, Mean: −34.8%
  Percentage Change of VAS Scores From Baseline, Mean: −50.9%
[2]; Week 8
  Percentage Change of BSA Levels From Baseline, Mean: −41.0%
  Percentage Change of DLQI Scores From Baseline, Mean: −57.5%
  Percentage Change of EASI Scores From Baseline, Mean: −51.1%
  Percentage Change of IGA Scores From Baseline, Mean: −42.6%
  Percentage Change of POEM Scores From Baseline, Mean: −53.1%
  Percentage Change of SCORAD Levels From Baseline, Mean: −44.3%
  Percentage Change of VAS Scores From Baseline, Mean: −52.7%
[2]; Week 10
  Percentage Change of BSA Levels From Baseline, Mean: −49.7%
  Percentage Change of DLQI Scores From Baseline, Mean: −61.6%
  Percentage Change of EASI Scores From Baseline, Mean: −59.6%
  Percentage Change of IGA Scores From Baseline, Mean: −46.2%
  Percentage Change of POEM Scores From Baseline, Mean: −50.1%
  Percentage Change of SCORAD Levels From Baseline, Mean: −47.1%
  Percentage Change of VAS Scores From Baseline, Mean: −47.7%
[2]; in vivo
  effect in patients having normal eosinophil levels compared to placebo or the total study population: greater effect; also recorded: higher response rate
[2]; [5]
  change in BSA levels relative to baseline: greater change
  change in DLQI levels relative to baseline: greater change
  change in EASI scores relative to baseline: greater change
  change in IGA scores relative to baseline: greater change
  change in POEM scores relative to baseline: greater change
  change in SCORAD levels relative to baseline: greater change
  change in VAS scores relative to baseline: greater change
[2]; patients having high eosinophil levels (greater than about 0.3×10^9/L)
  IGA responder rate: 0%
[2]; [6]
  EASI scoring: patients classified as responders: 51%
  IGA responders (IGA 0 or 1 at Week 8, 2-point decrease): 42%
  Pruritus scores (VAS): patients classified as responders: 53%
  pruritus reduction: 53%
[2]; [7]
  EASI (% decrease): 51%
  IGA responders (%): 42%
  Pruritus delta (as measured by VAS): 53%
  Pruritus score decrease (as measured by VAS): c. (2.0)
  SCORAD (% decrease): 44%
